Laboratory results: ChEMBL document CHEMBL5325413, “Optimization of BAX trigger site activator BTSA1 with improved antitumor potency and in vitro ADMET properties” (Eur J Med Chem, 2023)

Assays:
[1] = test system: MDA-MB-231; assay: Antiproliferative activity against human MDA-MB-231 cells expressing BAX assessed as cell growth inhibition incubated for 72 hrs by MTT assay; assay type: functional
[2] = test system: PC-3; assay: Antiproliferative activity against human PC-3 cells assessed as cell growth inhibition incubated for 72 hrs by MTT assay; assay type: functional
[3] = Metabolic stability in mouse liver microsomes assessed as parent compound remaining at 100 uM incubated for 60 mins in presence of NADPH by LC-MS/MS analysis
[4] = Metabolic stability in human liver microsomes assessed as parent compound remaining at 100 uM incubated for 60 mins in presence of NADPH by LC-MS/MS analysis
[5] = target: Apoptosis regulator BAX (Homo sapiens) (UniProt Q07812); assay: Activation of BAX in human A549 cells assessed as increase in cytochrome-c release incubated for 24 hrs by Western blot analysis; assay type: cell-based; details: filed as activator, dose 5-40 µM
[6] = test system: A549; assay: Induction of apoptosis in human A549 cells assessed as total apoptotic cells at 10 uM incubated for 48 hrs by Annexin V-FITC/PI staining based flow cytometry analysis (reference value: 2.86%); assay type: functional
[7] = human, microsomes, 1 h, 100 µM
[8] = mouse, 1 h, 100 µM
[9] = Metabolic stability in human liver microsomes assessed as parent compound remaining at 100 uM incubated for 60 mins in absence of NADPH by LC-MS/MS analysis
[10] = target: Cytochrome P450 2C9 (Homo sapiens, UniProt P11712); assay: Inhibition of CYP2C9 in human liver microsomes using diclofenac as substrate prewarmed for 10 mins followed by NADPH addition and measured after 10 mins by LC-MS/MS analysis
[11] = Stability in rat plasma assessed as compound remaining measured immediately; assay type: ADME, cell-free; details: read-out: Stability
[12] = test system: A549; assay: Induction of apoptosis in human A549 cells assessed as total apoptotic cells at 10 uM incubated for 48 hrs by Annexin V-FITC/PI staining based flow cytometry analysis (reference value: 4.26%); assay type: functional
[13] = target: T1, Cytochrome P450 1A2 (Homo sapiens, UniProt P05177); assay: Inhibition of CYP1A2 in human liver microsomes using phenacetin as substrate prewarmed for 10 mins followed by NADPH addition and measured after 10 mins by LC-MS/MS analysis
T1 sequence (P05177 whole entry): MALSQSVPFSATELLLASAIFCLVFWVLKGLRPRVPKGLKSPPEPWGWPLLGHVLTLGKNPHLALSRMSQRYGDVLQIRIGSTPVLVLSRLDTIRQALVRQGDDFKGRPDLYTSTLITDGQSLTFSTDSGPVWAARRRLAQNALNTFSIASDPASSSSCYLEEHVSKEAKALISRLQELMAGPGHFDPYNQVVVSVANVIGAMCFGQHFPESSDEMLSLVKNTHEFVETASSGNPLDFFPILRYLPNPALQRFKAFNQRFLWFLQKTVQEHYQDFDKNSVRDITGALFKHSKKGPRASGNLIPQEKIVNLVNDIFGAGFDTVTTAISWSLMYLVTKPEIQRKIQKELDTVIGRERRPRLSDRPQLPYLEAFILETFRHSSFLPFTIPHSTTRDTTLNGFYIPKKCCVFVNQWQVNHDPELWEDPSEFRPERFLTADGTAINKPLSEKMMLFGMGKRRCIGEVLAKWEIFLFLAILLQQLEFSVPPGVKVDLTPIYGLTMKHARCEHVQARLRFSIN

[14] = Stability in rat plasma assessed as half life; assay type: ADME, cell-free
[15] = Stability in rat plasma assessed as compound remaining measured after 30 mins; assay type: ADME, cell-free; details: read-out: Stability
[16] = test system: A549; assay: Induction of apoptosis in human A549 cells assessed as dead cells at 10 uM incubated for 48 hrs by Annexin V-FITC/PI staining based flow cytometry analysis (reference value: 0.535%); assay type: functional
[17] = test system: A549; assay: Induction of apoptosis in human A549 cells assessed as increase in cleaved PARP level incubated for 48 hrs by Western blot analysis; assay type: functional, cell-based; details: dose 5-40 µM
[18] = test system: A549; assay: Induction of apoptosis in human A549 cells assessed as live cells at 10 uM incubated for 48 hrs by Annexin V-FITC/PI staining based flow cytometry analysis (reference value: 95.9 %); assay type: functional
[19] = test system: A549; assay: Induction of apoptosis in human A549 cells assessed as late apoptotic cells at 10 uM incubated for 48 hrs by Annexin V-FITC/PI staining based flow cytometry analysis (reference value: 2.15%); assay type: functional
[20] = target: Apoptosis regulator BAX (Homo sapiens) (UniProt Q07812); assay: Activation of BAX in human A549 cells assessed as protein translocation by measuring increase in BAX protein level in mitochondrial fraction incubated for 24 hrs by Western blot analysis; assay type: mitochondria; details: filed as activator, dose 5-40 µM
[21] = test system: A549; assay: Induction of apoptosis in human A549 cells assessed as live cells at 10 uM incubated for 48 hrs by Annexin V-FITC/PI staining based flow cytometry analysis (reference value: 96.4%); assay type: functional
[22] = test system: A549; assay: Inhibition of colony formation in human A549 cells at 3 uM incubated for 2 weeks by crystal violet staining based analysis relative to control; assay type: functional; details: A549, 336 h
[23] = test system: A549; assay: Induction of apoptosis in human A549 cells assessed as dead cells at 5 uM incubated for 48 hrs by Annexin V-FITC/PI staining based flow cytometry analysis (reference value: 0.535%); assay type: functional
[24] = in vitro; details: mouse, liver microsomes
[25] = test system: THP-1; assay: Antiproliferative activity against human THP-1 cells expressing BAX assessed as cell growth inhibition incubated for 72 hrs by trypan blue cell counting analysis; assay type: functional
[26] = test system: A549; assay: Induction of cell cycle arrest in human A549 cells assessed as accumulation of cells at S phase at 2.5 uM incubated for 48 hrs by RNase/PI staining based flow cytometry analysis (reference value: 26.01%); assay type: functional

Chain of Apoptosis regulator BAX (Homo sapiens) (Q07812 whole entry): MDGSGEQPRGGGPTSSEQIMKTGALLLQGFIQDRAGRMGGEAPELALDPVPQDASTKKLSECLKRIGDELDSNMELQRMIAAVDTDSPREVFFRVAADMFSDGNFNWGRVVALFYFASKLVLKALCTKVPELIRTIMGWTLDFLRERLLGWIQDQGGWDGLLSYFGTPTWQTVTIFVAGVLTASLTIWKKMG
Chain of Cytochrome P450 2C9 (P11712 whole entry): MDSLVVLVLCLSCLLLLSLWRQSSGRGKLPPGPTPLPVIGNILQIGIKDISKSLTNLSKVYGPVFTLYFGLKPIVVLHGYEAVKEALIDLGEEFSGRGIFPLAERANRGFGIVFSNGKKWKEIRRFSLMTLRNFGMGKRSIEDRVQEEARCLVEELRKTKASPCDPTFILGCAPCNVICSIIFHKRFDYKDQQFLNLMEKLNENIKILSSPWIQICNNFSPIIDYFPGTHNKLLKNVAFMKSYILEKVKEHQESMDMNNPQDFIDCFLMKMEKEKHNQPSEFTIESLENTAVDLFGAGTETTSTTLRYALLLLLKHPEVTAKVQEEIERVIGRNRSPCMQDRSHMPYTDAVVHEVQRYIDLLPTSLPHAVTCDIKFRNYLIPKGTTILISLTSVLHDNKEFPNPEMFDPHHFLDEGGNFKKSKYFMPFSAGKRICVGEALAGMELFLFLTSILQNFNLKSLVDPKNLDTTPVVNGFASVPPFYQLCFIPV

With `CN(C)C1CCN(C(=O)c2ccc(N3N=C(c4ccccc4)/C(=N/Nc4ccccc4)C3=O)cc2)CC1` the GI50 [1] was 3.98 µM, the GI50 [2] was 2.5 µM and the remaining at 1 h, 100 µM [3] was 74.1%. For the same compound, the remaining at 1 h, 100 µM [4] was 97.9%, the Activity [5] was “Dose-Dependent Effect” and the Activity [6] was 93.7%. For the same compound, the CLint [7] was < 9.6 µL/min/mg, the CLH [8] was < 2.28 mL/h/kg and the remaining at 1 h, 100 µM [9] was 102%. The IC50 [10] was > 50 µM, the remaining at 0 min [11] was 100% and the Activity [12] was 73.4%. The IC50 [13] was > 50 µM, the half-life [14] was > 4.82 h and the remaining at 0.5 h [15] was 99.1%. The Activity [16] was 0.583%, the Activity [17] was “Dose-Dependent Effect” and the Activity [18] was 26.1%. For the same compound, the Activity [19] was 22.5%, the Activity [20] was “Dose-Dependent Effect” and the Activity [21] was 95.9%. The inhibition at 3 µM [22] was > 50%, the Activity [23] was 0.284% and the half-life at 1 h, 100 µM [24] was > 2.42 h. The GI50 [25] was 2.18 µM and the Activity [26] was 25.51%.
